Reference: patent publication US20230381142A1, “ANTILEISHMANIAL COMPOUNDS, COMPOSITIONS AND USE THEREOF” (TRUSTEES OF BOSTON UNIVERSITY, priority 2022, published 2023)
≈ marks a conversion by molar mass, not a printed value.

What was measured:
[1] = test system: L. donovani intracellular amastigotes infecting THP-1 macrophages; test: GSK intramacrophage L. donovani assay (LD AMMAC, inMac; Assay Conditions C); type: cell-based; settings: Leishmania donovani; growth inhibition of L. donovani intracellular amastigotes infecting THP-1 macrophages; read-out: LD AMMAC EC50
How it was run: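 L. donovani amastigotes within THP-1 macrophages; EC50 based on average intracellular amastigotes per infected cell (AMMAC). Infected-cell percentage (INFCELL) and host-cell number (MAC) also read, the latter as toxicity output.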

human serum albumin = human serum albumin (Homo sapiens, UniProt P02768); test: Human serum albumin (HSA) binding, chromatographic; type: in vitro ADME
human serum albumin, sequence (P02768 25-609): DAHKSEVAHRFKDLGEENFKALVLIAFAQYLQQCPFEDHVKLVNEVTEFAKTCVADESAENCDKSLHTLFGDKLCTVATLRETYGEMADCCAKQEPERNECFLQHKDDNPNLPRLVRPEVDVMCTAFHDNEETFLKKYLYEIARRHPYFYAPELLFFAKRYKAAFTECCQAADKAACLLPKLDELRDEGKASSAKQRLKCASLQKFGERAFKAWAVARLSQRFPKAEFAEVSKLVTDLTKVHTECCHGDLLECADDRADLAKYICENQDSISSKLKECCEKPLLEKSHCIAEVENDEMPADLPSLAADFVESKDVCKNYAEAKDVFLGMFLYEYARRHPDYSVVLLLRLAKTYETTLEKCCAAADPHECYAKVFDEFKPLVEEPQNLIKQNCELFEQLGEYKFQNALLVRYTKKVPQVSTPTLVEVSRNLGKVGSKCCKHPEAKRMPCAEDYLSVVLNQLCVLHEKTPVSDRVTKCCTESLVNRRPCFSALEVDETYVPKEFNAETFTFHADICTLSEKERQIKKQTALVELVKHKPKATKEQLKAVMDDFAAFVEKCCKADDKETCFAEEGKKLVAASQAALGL
Method: The percentage of compound bound to human serum albumin was measured using a chromatographic method as described. Briefly, each compound was assayed on an immobilized HSA column and gradient retention times measured, with chromatographic peak detection by UV. Each retention time was then converted to a % HSA bound value using a calibration set of compounds with a known % HSA binding.

[2] = Property forecast index (PFI = ChromLogD7.4 + aromatic rings); type: physicochemical
Method: At the outset of the project, compound 1 was evaluated against GSK's established criteria for antileishmanial compound advancement (Table 2). Some of these assessments were performed on racemic 1, while chiral separation was also pursued of the 1 racemate to determine the active enantiomer. […] Based on this promising profile, it progressed into medicinal chemistry optimization to better understand structure-activity relationships (SAR) toward improved potency, as well as structure-property relationships (SPR) with an eye toward reducing PFI and plasma protein binding.

[3] = Artificial membrane permeability (AMP); type: in vitro ADME; settings: PAMPA, pH 7.4
Method: Passive permeability of compounds via rate of permeation through an artificial phospholipid membrane at pH 7.4 was measured in a high-throughput format, in duplicate. A solution of 1.8% phosphatidylcholine in 1% decane was added to a 96-well Millicell filter plate along with 250 μL of 50 mM phosphate buffer, pH 7.4 on the donor side, and 100 μL of the same buffer solution on the receiver side. The assay plate was shaken for 45 minutes before adding test compounds. Test compounds were then added to the filter plate and then incubated at room temperature with shaking for three hours. The donor and receiver solutions were next transferred to a 384-well plate for analysis by LC/MS.

[4] = Kinetic aqueous solubility by CLND; type: physicochemical; settings: kinetic from dmso stock, high-throughput CLND
Method: Solubility of compounds using ChemiLuminescent Nitrogen Detection (CLND) was measured as described. Solubility of compounds using Charged Aerosol Detection (CAD) was measured as described. Solubility of solid compounds in Fasted Simulated Intestinal Fluid (FaSSIF) was measured as described.

HepG2 cells = test: HepG2 cytotoxicity; type: cell-based; settings: Homo sapiens; toxicity against HepG2 cells
Method: Given the literature precedents described above and the apparent narrow tolerance for R^3 substitutions observed in the primary screen compounds, a thorough and methodical assessment was undertaken of tolerated groups at the three points of diversity (R^1/R^2/R^3) for the core. At this stage of the project, all analogues were assessed using a battery of assays performed in-house at GlaxoSmithKline. For antileishmanial activity, GSK's inMac assay was utilized. This assay provides two readouts of compound potency: average number of intracellular amastigotes per infected cell (AMMAC) EC50, percentage of infected cells per well (INFCELL) EC50, as well as a toxicity output derived from the number of host cells (MAC EC50). In addition, compounds were assessed for toxicity against HepG2 cells (HEPG2 EC50). Here, AMMAC EC50 values were focused on for relative potency assessments. […] It should be noted that for all compounds assessed in this project, the measured toxicity against THP-1 macrophages either equaled or exceeded that of HepG2 hepatocytes, therefore the MAC SI is used here as the more conservative estimate of therapeutic index.

host THP-1 macrophages = test: GSK inMac assay, host cell toxicity readout (LD MAC); type: cell-based, human; settings: Homo sapiens, THP-1, cytotoxicity against host THP-1 macrophages
How it was run: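 Intramacrophage L. donovani assay in THP-1 macrophages; host toxicity taken from host cell number per well, giving MAC EC50. Run alongside amastigote-per-cell and infected-cell readouts in the same wells.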

[5] = aqueous (not further specified)
[6] = aqueous medium (not further specified)

Structure (SMILES)	EC50 [1]	HSA Binding (human serum albumin)	PFI [2]	Papp at 3 h [3]	solubility [4, 5]	EC50 (HepG2 cells)	EC50 (host THP-1 macrophages)	solubility [4, 6]
CCOc1ccc(N2C(=O)c3[nH]nc(CC(C)C)c3C2c2ccc(F)cc2)cc1 (stereo not shown) [Compound 19]	1.6 µM	97.5%	8.9	25 ×10⁻⁶ cm/s	38 µM (≈ 15 µg/mL)	50.1 µM	20 µM	–
CC(C)Cc1n[nH]c2c1C(c1ccc(F)cc1)N(c1ccc(OC(F)(F)F)cc1)C2=O (stereo not shown) [Compound 20]	3.2 µM	98.1%	9.8	29 ×10⁻⁶ cm/s	5 µM (≈ 2.17 µg/mL)	25.1 µM	7.9 µM	–
CCc1ccc(N2C(=O)c3[nH]nc(CC(C)C)c3C2c2ccc(F)cc2)cc1 (stereo not shown) [Compound 22]	4 µM	97.4%	9.7	< 1 ×10⁻⁶ cm/s	9 µM (≈ 3.4 µg/mL)	50.1 µM	20 µM	–
CC(C)Cc1n[nH]c2c1C(c1ccc(F)cc1)N(c1ccc(F)cc1)C2=O (stereo not shown) [Compound 23]	6.3 µM	97.7%	8.8	12 ×10⁻⁶ cm/s	61 µM (≈ 22.4 µg/mL)	50.1 µM	25.1 µM	–
CC(C)Cc1n[nH]c2c1C(c1ccc(F)cc1)N(c1ccc(Br)cc1)C2=O (stereo not shown) [Compound 24, 5-(4-bromophenyl)-4-(4-fluorophenyl)-3-isobutyl-4,5-dihydropyrrolo[3,4-c]pyrazol-6(1H)-one]	1.3 µM	97.9%	9.7	32 ×10⁻⁶ cm/s	9 µM (≈ 3.85 µg/mL)	39.8 µM	15.8 µM	–
CC(C)Cc1n[nH]c2c1C(c1ccc(F)cc1)N(c1ccc(C(C)(C)C)cc1)C2=O (stereo not shown) [Compound 25]	10 µM	97.9%	10.5	13 ×10⁻⁶ cm/s	< 1 µM	50.1 µM	> 50 µM	–
COC(=O)c1ccc(N2C(=O)c3[nH]nc(CC(C)C)c3C2c2ccc(F)cc2)cc1 (stereo not shown) [Compound 26]	1.6 µM	97.5%	8.5	41 ×10⁻⁶ cm/s	26 µM (≈ 10.6 µg/mL)	39.8 µM	31.6 µM	–
CC(C)Cc1n[nH]c2c1C(c1ccc(F)cc1)N(c1ccc(C(=O)O)cc1)C2=O (stereo not shown) [Compound 27]	> 50 µM	95.2%	4.9	< 0.3 ×10⁻⁶ cm/s	≥ 389 µM	> 100 µM	> 50 µM	–
COc1ccccc1N1C(=O)c2[nH]nc(CC(C)C)c2C1c1ccc(F)cc1 (stereo not shown) [Compound 29]	20 µM	97.5%	8.5	59 ×10⁻⁶ cm/s	–	79.4 µM	> 50 µM	240 µM (≈ 91.1 µg/mL)
COc1cccc(N2C(=O)c3[nH]nc(CC(C)C)c3C2c2ccc(F)cc2)c1 (stereo not shown) [Compound 30]	12.6 µM	97.3%	8.4	37 ×10⁻⁶ cm/s	–	63.1 µM	31.6 µM	64 µM (≈ 24.3 µg/mL)
COc1ccc(N2C(=O)c3[nH]nc(CC(C)C)c3C2c2ccc(F)cc2)cn1 (stereo not shown) [Compound 31]	10 µM	95.5%	8.0	26 ×10⁻⁶ cm/s	–	> 100 µM	> 50 µM	194 µM (≈ 73.8 µg/mL)
CC(C)Cc1n[nH]c2c1C(c1ccc(F)cc1)N(c1cccnc1)C2=O (stereo not shown) [Compound 32]	25.1 µM	93.4%	7.2	47 ×10⁻⁶ cm/s	–	> 100 µM	> 50 µM	182 µM (≈ 63.8 µg/mL)
CC(C)Cc1n[nH]c2c1C(c1ccc(F)cc1)N(c1ccccn1)C2=O (stereo not shown) [Compound 33]	20 µM	96.6%	8.5	20 ×10⁻⁶ cm/s	–	> 100 µM	> 50 µM	219 µM (≈ 76.7 µg/mL)
COc1ccc(CN2C(=O)c3[nH]nc(CC(C)C)c3C2c2ccc(F)cc2)cc1 (stereo not shown) [Compound 34]	12.6 µM	98.2%	9.0	55 ×10⁻⁶ cm/s	–	50.1 µM	31.6 µM	45 µM (≈ 17.7 µg/mL)
Cc1ccc(CN2C(=O)c3[nH]nc(CC(C)C)c3C2c2ccc(F)cc2)o1 (stereo not shown) [Compound 35]	15.8 µM	97.2%	8.9	37 ×10⁻⁶ cm/s	–	50.1 µM	39.8 µM	19 µM (≈ 6.98 µg/mL)
COC1CCC(N2C(=O)c3[nH]nc(CC(C)C)c3C2c2ccc(F)cc2)CC1 (stereo not shown) [Compound 36]	25.1 µM	92.1%	7.3	57 ×10⁻⁶ cm/s	–	> 100 µM	> 50 µM	≥ 450 µM
CC(C)Cc1n[nH]c2c1C(c1ccc(F)cc1)N(C1CCC(N(C)C)CC1)C2=O (stereo not shown) [Compound 37]	25.1 µM	81.1%	4.6	13 ×10⁻⁶ cm/s	–	> 100 µM	> 50 µM	≥ 446 µM
CC(C)Cc1n[nH]c2c1C(c1ccc(F)cc1)N(C1CCOCC1)C2=O (stereo not shown) [Compound 38]	31.6 µM	90.2%	6.5	49 ×10⁻⁶ cm/s	–	> 100 µM	> 50 µM	≥ 381 µM
CC(C)Cc1n[nH]c2c1C(c1ccc(F)cc1)N(CC1CCN(C)C1)C2=O (stereo not shown) [Compound 40]	> 50 µM	77.5%	4.8	< 1 ×10⁻⁶ cm/s	–	> 100 µM	> 50 µM	≥ 351 µM
